Here are results for 21 compounds from ChEMBL document CHEMBL5113435, “Development of an automated screen for Kv7.2 potassium channels and discovery of a new agonist chemotype” (Bioorg Med Chem Lett, 2022).

Structures are written as SMILES.

Assay [1] concerns the target T1, Potassium voltage-gated channel subfamily KQT member 2 (Homo sapiens, UniProt O43526). The following applies: filed as agonist, dose 5.0 µM.
Description: Agonist activity at Kv7.2 (unknown origin) assessed as shifting of voltage dependent activation to more negative potentials at 5 uM by SyncroPatch assay
For assay [2], the species on record is Homo sapiens. The following applies: filed as agonist, dose 5.0 µM.
Description: Agonist activity at Kv7.2 W236L mutant (unknown origin) assessed as shifting of voltage dependent activation to more negative potentials at 5 uM by SyncroPatch assay
The target of assay [3] is Potassium voltage-gated channel subfamily KQT member 5 (Homo sapiens, UniProt Q9NR82). As to the kind of experiment: Agonist activity at Kv7.5 (unknown origin) expressed in CHO cells co-expressing GFP. Type of assay: cell-based.
For assay [4], the target named is Voltage-gated potassium channel, KQT; KCNQ2(Kv7.2)/KCNQ3(Kv7.3) (Homo sapiens, UniProt O43525+O43526). Put plainly: Agonist activity at Kv7.2/3 (unknown origin) expressed in CHO cells co-expressing GFP. Type of assay: cell-based.
In assay [5] the target is T2, Potassium voltage-gated channel subfamily KQT member 4 (Homo sapiens, UniProt P56696).
T2 sequence (P56696 whole entry): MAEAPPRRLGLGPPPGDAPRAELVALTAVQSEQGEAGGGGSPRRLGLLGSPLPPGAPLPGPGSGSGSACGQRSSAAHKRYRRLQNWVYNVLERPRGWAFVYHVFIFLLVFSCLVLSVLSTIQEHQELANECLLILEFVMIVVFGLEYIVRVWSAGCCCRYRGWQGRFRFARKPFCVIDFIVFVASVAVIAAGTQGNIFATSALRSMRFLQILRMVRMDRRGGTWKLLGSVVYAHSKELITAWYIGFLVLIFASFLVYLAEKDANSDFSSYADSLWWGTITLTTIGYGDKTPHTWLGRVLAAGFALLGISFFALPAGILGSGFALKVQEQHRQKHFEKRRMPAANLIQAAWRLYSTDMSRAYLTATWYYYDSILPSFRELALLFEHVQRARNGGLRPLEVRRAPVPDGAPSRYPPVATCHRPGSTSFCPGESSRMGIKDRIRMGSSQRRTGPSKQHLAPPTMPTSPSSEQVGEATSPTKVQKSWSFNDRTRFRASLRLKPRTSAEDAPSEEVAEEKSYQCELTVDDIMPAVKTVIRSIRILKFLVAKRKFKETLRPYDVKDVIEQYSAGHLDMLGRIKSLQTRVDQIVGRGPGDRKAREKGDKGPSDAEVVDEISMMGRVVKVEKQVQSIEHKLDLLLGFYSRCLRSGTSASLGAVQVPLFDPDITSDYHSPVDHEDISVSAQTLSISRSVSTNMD
Put plainly: Agonist activity at Kv7.4 (unknown origin) expressed in CHO cells co-expressing GFP. Format: cell-based.

In assay [6] the target is T1, Potassium voltage-gated channel subfamily KQT member 2. Put plainly: Agonist activity at Kv7.2 (unknown origin) assessed as shifting of voltage dependent activation to more negative potentials by SyncroPatch assay.
The species named for assay [7] is Homo sapiens. Put plainly: Selectivity index, ratio of EC50 for agonist activity at Kv7.5 (unknown origin) expressed in CHO cells co-expressing GFP to EC50 for agonist activity at Kv7.2/3 (unknown origin) expressed in CHO cells co-expressing GFP. Type of assay: cell-based.
For assay [8], the species on record is Homo sapiens. Put plainly: Selectivity index, ratio of EC50 for agonist activity at Kv7.4 (unknown origin) expressed in CHO cells co-expressing GFP to EC50 for agonist activity at Kv7.2/3 (unknown origin) expressed in CHO cells co-expressing GFP. Format: cell-based.

T1 sequence (O43526 whole entry): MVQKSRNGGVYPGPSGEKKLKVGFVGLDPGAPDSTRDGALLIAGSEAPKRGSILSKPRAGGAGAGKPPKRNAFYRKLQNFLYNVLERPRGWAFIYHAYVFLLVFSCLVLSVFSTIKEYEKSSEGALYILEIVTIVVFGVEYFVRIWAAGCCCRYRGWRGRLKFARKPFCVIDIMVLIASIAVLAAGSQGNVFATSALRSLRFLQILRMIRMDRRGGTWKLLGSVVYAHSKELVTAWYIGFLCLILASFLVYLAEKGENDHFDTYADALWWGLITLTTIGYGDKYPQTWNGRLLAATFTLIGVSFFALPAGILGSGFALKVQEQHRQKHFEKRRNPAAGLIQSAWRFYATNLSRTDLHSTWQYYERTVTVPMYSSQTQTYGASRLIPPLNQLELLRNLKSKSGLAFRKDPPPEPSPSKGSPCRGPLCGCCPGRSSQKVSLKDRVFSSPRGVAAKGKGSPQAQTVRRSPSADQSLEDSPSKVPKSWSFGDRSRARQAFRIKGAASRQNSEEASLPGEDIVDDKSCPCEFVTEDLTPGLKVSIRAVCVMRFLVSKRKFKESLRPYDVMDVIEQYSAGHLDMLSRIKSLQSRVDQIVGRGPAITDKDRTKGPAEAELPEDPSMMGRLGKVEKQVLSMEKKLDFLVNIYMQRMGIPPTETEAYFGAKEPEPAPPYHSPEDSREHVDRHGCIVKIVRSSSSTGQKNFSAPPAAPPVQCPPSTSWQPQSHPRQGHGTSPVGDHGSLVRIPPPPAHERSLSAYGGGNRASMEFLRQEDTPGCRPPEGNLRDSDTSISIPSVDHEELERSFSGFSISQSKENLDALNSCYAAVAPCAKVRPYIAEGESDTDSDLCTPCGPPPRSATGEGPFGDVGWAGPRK
Sequence of Potassium voltage-gated channel subfamily KQT member 5 (Q9NR82 whole entry): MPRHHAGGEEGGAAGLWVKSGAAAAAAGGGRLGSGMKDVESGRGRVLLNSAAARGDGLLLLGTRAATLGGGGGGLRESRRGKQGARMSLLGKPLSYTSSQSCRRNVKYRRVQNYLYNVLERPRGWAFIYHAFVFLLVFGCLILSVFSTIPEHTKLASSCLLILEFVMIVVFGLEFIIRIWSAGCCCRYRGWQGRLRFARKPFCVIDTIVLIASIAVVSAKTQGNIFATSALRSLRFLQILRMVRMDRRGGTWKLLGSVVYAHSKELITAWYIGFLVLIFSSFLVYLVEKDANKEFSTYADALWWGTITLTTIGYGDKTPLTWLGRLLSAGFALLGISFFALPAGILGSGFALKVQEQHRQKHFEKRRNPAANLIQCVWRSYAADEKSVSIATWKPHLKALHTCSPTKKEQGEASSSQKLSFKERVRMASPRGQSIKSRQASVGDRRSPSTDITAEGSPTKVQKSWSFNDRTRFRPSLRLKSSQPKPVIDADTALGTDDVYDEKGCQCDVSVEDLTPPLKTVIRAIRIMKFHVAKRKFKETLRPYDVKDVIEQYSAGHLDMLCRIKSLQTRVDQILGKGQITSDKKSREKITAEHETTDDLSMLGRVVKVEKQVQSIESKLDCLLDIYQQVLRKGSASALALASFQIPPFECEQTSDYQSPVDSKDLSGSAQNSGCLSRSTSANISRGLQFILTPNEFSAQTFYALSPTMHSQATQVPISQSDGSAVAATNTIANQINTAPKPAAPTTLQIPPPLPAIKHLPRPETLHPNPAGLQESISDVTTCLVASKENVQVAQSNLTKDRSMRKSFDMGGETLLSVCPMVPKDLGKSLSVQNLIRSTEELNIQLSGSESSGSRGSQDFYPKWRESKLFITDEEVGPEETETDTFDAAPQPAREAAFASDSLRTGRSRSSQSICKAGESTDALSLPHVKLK
Sequence of Voltage-gated potassium channel, KQT; KCNQ2(Kv7.2)/KCNQ3(Kv7.3) (O43526 whole entry): as the sequence (O43526 whole entry) above
Sequence of Voltage-gated potassium channel, KQT; KCNQ2(Kv7.2)/KCNQ3(Kv7.3) (O43525 whole entry): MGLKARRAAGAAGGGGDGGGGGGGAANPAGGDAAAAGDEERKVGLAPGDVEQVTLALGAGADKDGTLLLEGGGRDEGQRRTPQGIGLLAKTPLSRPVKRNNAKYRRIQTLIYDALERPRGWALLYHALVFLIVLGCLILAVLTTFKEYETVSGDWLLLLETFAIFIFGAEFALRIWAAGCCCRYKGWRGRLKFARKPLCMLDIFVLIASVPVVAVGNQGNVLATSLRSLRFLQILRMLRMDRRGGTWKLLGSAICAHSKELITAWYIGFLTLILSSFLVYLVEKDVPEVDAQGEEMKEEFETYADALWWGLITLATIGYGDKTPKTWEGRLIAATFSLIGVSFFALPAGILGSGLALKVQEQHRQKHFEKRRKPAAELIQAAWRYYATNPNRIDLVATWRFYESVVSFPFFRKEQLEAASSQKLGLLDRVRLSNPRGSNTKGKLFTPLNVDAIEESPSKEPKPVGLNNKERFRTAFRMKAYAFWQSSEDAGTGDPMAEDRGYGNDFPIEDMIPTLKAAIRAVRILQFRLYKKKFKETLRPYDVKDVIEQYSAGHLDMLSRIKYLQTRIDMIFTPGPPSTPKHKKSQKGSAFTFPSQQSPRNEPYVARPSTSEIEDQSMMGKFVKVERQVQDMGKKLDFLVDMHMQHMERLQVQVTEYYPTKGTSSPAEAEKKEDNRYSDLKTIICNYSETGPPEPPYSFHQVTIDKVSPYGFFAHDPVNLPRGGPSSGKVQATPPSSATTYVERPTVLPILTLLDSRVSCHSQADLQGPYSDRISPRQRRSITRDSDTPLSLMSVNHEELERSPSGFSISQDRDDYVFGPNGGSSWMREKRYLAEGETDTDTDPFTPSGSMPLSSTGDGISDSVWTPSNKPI

For `COc1ccc2c(c1)[C@@H](NC(C)=O)[C@H](C)[C@@H](c1ccccc1)N2C(=O)Nc1ccc(C(F)(F)F)cc1`, the V1/2 in assay [1] was 10 mV; in the assay listed under Homo sapiens [2] it was -2.7 mV.

`O=C(Cc1ccc(OC(F)(F)F)cc1)Nc1ccc2[nH]c(-c3ccc(C(F)(F)F)cc3)cc2c1`: the V1/2 in assay [1] was -8.9 mV; in the assay filed under Homo sapiens [2], 3.9 mV.

By EC50 is commonly meant the concentration at which the effect is half-maximal. In the case of `Nc1c(NC(=O)OC2CC2)ccc(NCc2ccc(C(F)(F)F)cc2)c1F`, the EC50 stood at 3780 nM in assay [3], 18 nM in assay [4], 910 nM in assay [5] and 3.03 µM in assay [6]. For the same compound, the V1/2 was -44.9 mV in assay [1] and -9.3 mV in the assay filed under Homo sapiens [2]. The Ratio EC50 in the assay filed under Homo sapiens [7] and in the assay listed under Homo sapiens [8] was 50 in each case.

As for `CCOC(=O)Nc1ccc(NCc2ccc(C(F)(F)F)cc2)c(F)c1N`, the V1/2 in assay [1] was -48.1 mV; in assay [1] (tested as the 2H-labelled form), -45.2 mV; in the assay filed under Homo sapiens [2] it was 1.9 mV; in the assay listed under Homo sapiens [2] (tested as the 2H-labelled form), -4.4 mV.

As to `O=C(Cc1cc(F)cc(F)c1)Nc1ccc2[nH]c(-c3ccc(C(F)(F)F)cc3)cc2c1`, the results for the V1/2 (in assay [1]; in the assay filed under Homo sapiens [2]) were -1.1 mV and 2.4 mV, respectively.

Take `CCOC(=O)Nc1cc(F)c(NCc2ccc(C(F)(F)F)cc2)c(F)c1N`: the concentration for a half-maximal effect (EC50) in assay [3] stood at 1060 nM; in assay [5], 87 nM.

`CCOC(=O)Nc1ccc(NCc2ccc(F)cc2)nc1N`: the V1/2 in assay [1] was -23.8 mV; in the assay filed under Homo sapiens [2], 1.2 mV.

For the compound `[2H]c1cc(NC(=O)OCC)c(N)c(F)c1NCc1ccc(C(F)(F)F)cc1`, the EC50 in assay [6] came to 0.98 µM.

For `COc1ccc(CNc2cc3ccccc3c(=O)[nH]2)cc1`, the V1/2 in assay [1] was -3 mV; in the assay listed under Homo sapiens [2] it was 1.3 mV.

For `CCOC(=O)Nc1ccc(NCc2ccc(F)cc2)cc1N` [EZOGABINE], the V1/2 in assay [1] is -34.3 mV; in the assay filed under Homo sapiens [2], 4.2 mV. Further, the EC50 in assay [6] was found to be 4.21 µM.

For `COc1ccc2c(c1)[C@@H](NC(=O)OCc1ccccc1)[C@H](C)[C@@H](c1ccccc1)N2C(=O)NC(C)C`, the V1/2 in assay [1] came out at 6.2 mV; in the assay listed under Homo sapiens [2] it was 4.9 mV.

As to `CCOC(=O)Nc1cc(F)c2c(c1N)S(=O)(=O)CC(c1ccccc1)N2` (stereo unspecified), the figures for the V1/2 (in assay [1]; in the assay filed under Homo sapiens [2]) were 4.4 mV and 2.8 mV, respectively.

On to `COc1ccc2c(c1)[C@@H](NC(C)=O)[C@H](C)[C@@H](c1ccccc1)N2C(C)=O`, for which the V1/2 in assay [1] is 2.5 mV; in the assay listed under Homo sapiens [2] it was 0.26 mV.

With `CC(C)(C)CC(=O)Nc1ccc2[nH]c(-c3ccc(C(F)(F)F)cc3)cc2c1`, the V1/2 was -4.1 mV in assay [1] and 3.2 mV in the assay listed under Homo sapiens [2].

As to `CC[C@H]1Nc2ccc(OC)cc2[C@@H](NS(C)(=O)=O)[C@@H]1C`, the values for the V1/2 (in assay [1]; in the assay filed under Homo sapiens [2]) were -3 mV and 2.8 mV, respectively.

Regarding `CC(C)OC(=O)Nc1ccc2[nH]c(-c3ccc(C(F)(F)F)cc3)cc2c1`, the values for the V1/2 (in assay [1]; in the assay filed under Homo sapiens [2]) were -3.2 mV and -0.31 mV, respectively.

`CCOC(=O)Nc1ccc(NCc2ccc(C(F)(F)F)nc2)c(F)c1N`: the EC50 came out at 540 nM in assay [3], 3360 nM in assay [4] and 660 nM in assay [5].

As to `O=C(Nc1ccc2[nH]c(-c3ccc(C(F)(F)F)cc3)cc2c1)OC1CC1`, the values for the V1/2 (in assay [1]; in the assay filed under Homo sapiens [2]) were 6.2 mV and 4.7 mV, respectively.

Consider `CCOC(=O)Nc1ccc2[nH]c(-c3ccc(C(F)(F)F)cc3)cc2c1`, for which the values for the V1/2 (in assay [1]; in the assay filed under Homo sapiens [2]) were -4.8 mV and -6 mV, respectively.

For the compound `Nc1c(F)c(NCc2ncc(C(F)(F)F)cc2F)c(F)c(F)c1NC(=O)OC1CC1`, the concentration for a half-maximal effect (EC50) is 3780 nM in assay [3] and 320 nM in assay [5].

With `CCOC(=O)Nc1ccc2[nH]c(-c3ccc(F)cc3)cc2c1`, the V1/2 is -0.66 mV in assay [1] and 2.5 mV in the assay listed under Homo sapiens [2].
